pIC50: −log10 of the molar value. Where two headings read alike, the source gives them in different places.
Test system: HCT15 cells
Test: MDR cell based killing assay, HCT15 cells with or without Verapamil (CellTiter-Glo)
Set-up: species or system human
Conditions: for pIC50: Homo sapiens
Method: To test the ability of the disclosed tubulysin payloads or prodrug payloads to kill human cell lines, an in vitro cytotoxicity assay can be performed. In vitro cytotoxicity of the disclosed payloads, as well as reference compounds, are evaluated using the CellTiter-Glo Assay Kit (Promega, Cat # G7573), in which the quantity of ATP present is used to determine the number of viable cells in culture. For the assay, C4-2, HEK293, or T47D cells are seeded at 4000 cells/well on Nunclon white 96-well plates in complete growth medium (DME high glucose:Ham's F12 at 4:1, 10% FBS, 100 units/ml Penicillin, 100 ug/ml streptomycin, 53 ug/ml glutatmine, 10 ug/ml insulin, 220 ng/ml biotin, 12.5 pg/ml T3, 12.5 ug/ml Adenine, 4 ug/ml transferrin for C42 cells; DME high glucose, 10% FBS, 100 units/ml Penicillin, 100 ug/ml streptomycin, 53 ug/ml glutatmine for HEK293; RPMI, 10% FBS, 100 units/ml Penicillin, 100 ug/ml streptomycin, 53 ug/ml glutatmine, 10 ug/ml insulin, 10 mM HEPEs, 200 nM Sodium Pyruvate for T47D cells) and grown overnight at 37° C. in 5% CO2. For cell viability curves, 1:3 serially diluted payloads are added to the cells at final concentrations ranging from 100 nM to 15 pM, including a no treatment control group, and are then incubated for 5 days. After the 5-day incubation, cells are incubated at room temperature with 100 μL of CellTiter-Glo reagents for 10 minutes. Relative luminescence units (RLU) can be determined on a Victor plate reader (PerkinElmer). The IC50 values are determined from a four-parameter logistic equation over a 10-point response curve (GraphPad Prism). All IC50 values are expressed in molar (M) concentration. The percent cell killing (% kill) at the maximum concentration tested is estimated from the following formula (100−% viable cells). Averages±standard deviation (SD) can be included where replicate experiments are performed.
In vitro cytotoxicity of the disclosed payloads as well as reference compounds are evaluated similarly as described above except using 1000 HCT15 cells, a colorectal carcinoma cell line, in growth medium (RPMI, 10% FBS, 100 units/ml Penicillin, 100 ug/ml streptomycin, 53 ug/ml glutatmine) with or without 5 ug/mL of Verapamil.
For each payload or prodrug payload, the HCT-15 IC50 in the absence of Verapamil is divided by the HCT-15 IC50 in the presence of Verapamil (HCT-15 IC50/HCT-15+Verapamil IC50). […] The reference compound, (MMAE), can have a ratio of 23.7. […]

[1] = HCT-15, read-out: HCT-15 with verapamil IC50

Row | Structure (SMILES) | pIC50 (HCT-15, read-out: HCT-15 IC50) | pIC50 [1] | HCT-15 with verapamil Ratio to Xa = H (IC50 ratio to parent payload with Xa = H, with verapamil) | HCT-15 Ratio to Xa = H (IC50 ratio to parent payload with Xa = H, without verapamil)
1 | CCCCCCN(C(=O)[C@@H](NC(=O)[C@H]1C[C@H](C)CCN1)[C@@H](C)CC)[C@H](C[C@@H](OCC)c1nc(C(=O)N[C@@H](Cc2ccc(N)c(F)c2)CC(C)(C)C(=O)O)cs1)C(C)C [Compound P17, (4S)-5-(4-amino-3-fluorophenyl)-4-({2-[(1R,3R)-1-ethoxy-3-[(2S,3S)—N-hexyl-3-methyl-2-{[(2R,4R)-4-methylpiperidin-2-yl]formamido}pentanamido]-4-methylpentyl]-1,3-thiazol-4-yl}formamido)-2,2-dimethylpentanoic Acid] | 8.29 | 9.17 |  | 
2 | CCCCCCN(C(=O)[C@@H](NC(=O)[C@H]1CCCCN1C)[C@@H](C)CC)[C@H](C[C@@H](OC(C)=O)c1nc(C(=O)N[C@@H](Cc2ccc(NC(=O)CO)cc2)CC(C)(C)C(=O)O)cs1)C(C)C [Compound P29, (4S)-4-({2-[(1R,3R)-1-(acetyloxy)-3-[(2S,3S)—N-hexyl-3-methyl-2-{[(2R)-1-methylpiperidin-2-yl]formamido}pentanamido]-4-methylpentyl]-1,3-thiazol-4-yl}formamido)-5-[4-(2-hydroxyacetamido)phenyl]-2,2-dimethylpentanoic Acid] | 8.33 | 9.17 | 35x | 104x
3 | CCCCCCN(C(=O)[C@@H](NC(=O)[C@H]1CCCCN1C)[C@@H](C)CC)[C@H](C[C@@H](NC(C)=O)c1nc(C(=O)N[C@@H](Cc2ccc(N)cc2)CC(C)(C)C(=O)O)cs1)C(C)C [Compound P9, (4S)-5-(4-aminophenyl)-4-({2-[(1R,3R)-1-acetamido-3-[(2S,3S)—N-hexyl-3-methyl-2-{[(2R)-1-methylpiperidin-2-yl]formamido}pentanamido]-4-methylpentyl]-1,3-thiazol-4-yl}formamido)-2,2-dimethylpentanoic Acid] | 8.68 | 9.52 |  | 
4 | CCCCCCN(C(=O)[C@@H](NC(=O)[C@H]1CCCCN1C)[C@@H](C)CC)[C@H](C[C@@H](OC(C)=O)c1nc(C(=O)NS(=O)(=O)c2ccc(N)cc2)cs1)C(C)C [Compound P43, (1R,3R)-1-{4-[(4-aminobenzenesulfonyl)carbamoyl]-1,3-thiazol-2-yl}-3-[(2S,3S)—N-hexyl-3-methyl-2-{[(2R)-1-methylpiperidin-2-yl]formamido}pentanamido]-4-methylpentyl Acetate] | 8.30 | 8.85 |  | 
5 | C#CCCCON(C(=O)[C@@H](NC(=O)[C@H]1CCCCN1C)[C@@H](C)CC)[C@H](C[C@@H](O)c1nc(C(=O)N[C@@H](Cc2ccc(N)cc2)CC(C)(C)C(=O)O)cs1)C(C)C [Compound P33, (4S)-5-(4-aminophenyl)-4-({2-[(1R,3R)-1-hydroxy-4-methyl-3-[(2S,3S)-3-methyl-2-{[(2R)-1-methylpiperidin-2-yl]formamido}-N-(pent-4-yn-1-yloxy)pentanamido]pentyl]-1,3-thiazol-4-yl}formamido)-2,2-dimethylpentanoic Acid] | 7.09 | 7.55 |  | 
6 | CCCCCCN(C(=O)[C@@H](NC(=O)[C@H]1CCCCN1C)[C@@H](C)CC)[C@H](C[C@@H](OC(C)=O)c1nc(C(=O)NS(=O)(=O)Cc2ccc(N)cc2)cs1)C(C)C [Compound P44, (1R,3R)-1-(4-{[(4-aminophenyl)methanesulfonyl]carbamoyl}-1,3-thiazol-2-yl)-3-[(2S,3S)—N-hexyl-3-methyl-2-{[(2R)-1-methylpiperidin-2-yl]formamido}pentanamido]-4-methylpentyl Acetate] | 7.59 |  |  | 
7 | CCCCCCN(C(=O)[C@@H](NC(=O)[C@H]1CCCCN1C)[C@@H](C)CC)[C@H](C[C@@H](OCC)c1nc(C(=O)N[C@@H](Cc2ccc(N)c(F)c2)CC(C)(C)C(=O)O)cs1)C(C)C [Compound P3, (4S)-5-(4-amino-3-fluorophenyl)-4-({2-[(1R,3R)-1-ethoxy-3-[(2S,3S)—N-hexyl-3-methyl-2-{[(2R)-1-methylpiperidin-2-yl]formamido}pentanamido]-4-methylpentyl]-1,3-thiazol-4-yl}formamido)-2,2-dimethylpentanoic Acid] | 10.15 | 11.00 |  | 
8 | CCCCCCN(C(=O)[C@@H](NC(=O)[C@H]1CCCCN1C)[C@@H](C)CC)[C@H](C[C@@H](OC(C)=O)c1nc(C(=O)N[C@@H](Cc2ccc(F)cc2)CC(C)(C)C(=O)NS(=O)(=O)c2ccc(N)cc2)cs1)C(C)C [Compound P47, (1R,3R)-1-(4-{[(2S)-4-[(4-aminobenzenesulfonyl)carbamoyl]-1-(4-fluorophenyl)-4,4-dimethylbutan-2-yl]carbamoyl}-1,3-thiazol-2-yl)-3-[(2S,3S)—N-hexyl-3-methyl-2-{[(2R)-1-methylpiperidin-2-yl]formamido}pentanamido]-4-methylpentyl Acetate] | 7.27 |  |  | 
9 | CCCCCCN(C(=O)[C@@H](NC(=O)[C@H]1CCCCN1C)[C@@H](C)CC)[C@H](C[C@@H](OCC)c1nc(C(=O)N[C@@H](Cc2ccc(N)cc2)CC(C)(C)C(=O)O)cs1)C(C)C [Compound P8, (4S)-5-(4-aminophenyl)-4-({2-[(1R,3R)-1-ethoxy-3-[(2S,3S)—N-hexyl-3-methyl-2-{[(2R)-1-methylpiperidin-2-yl]formamido}pentanamido]-4-methylpentyl]-1,3-thiazol-4-yl}formamido)-2,2-dimethylpentanoic Acid] | 9.62 | 10.22 |  | 
10 | CCCCCCN(C(=O)[C@@H](NC(=O)[C@@]1(C)CCCN1C)[C@@H](C)CC)[C@H](C[C@@H](OC(C)=O)c1nc(C(=O)N[C@@H](Cc2ccc(N)cc2)CC(C)(C)C(=O)O)cs1)C(C)C [Compound P19, (4S)-4-({2-[(1R,3R)-1-(acetyloxy)-3-[(2S,3S)-2-{[(2R)-1,2-dimethylpyrrolidin-2-yl]formamido}-N-hexyl-3-methylpentanamido]-4-methylpentyl]-1,3-thiazol-4-yl}formamido)-5-(4-aminophenyl)-2,2-dimethylpentanoic Acid] | 9.70 | 11.00 |  | 
11 | CCCCCCN(C(=O)[C@@H](NC(=O)[C@H]1CCCCN1C)[C@@H](C)CC)[C@H](C[C@@H](OC(C)=O)c1nc(C(=O)N[C@@H](Cc2ccc(F)cc2)CC(C)(C)C(=O)NS(=O)(=O)c2ccc(CN)cc2)cs1)C(C)C [Compound P46, (1R,3R)-1-(4-{[(2S)-4-{[4-(aminomethyl)benzenesulfonyl]carbamoyl}-1-(4-fluorophenyl)-4,4-dimethylbutan-2-yl]carbamoyl}-1,3-thiazol-2-yl)-3-[(2S,3S)—N-hexyl-3-methyl-2-{[(2R)-1-methylpiperidin-2-yl]formamido}pentanamido]-4-methylpentyl Acetate] | < 7.00 |  |  | 
12 | CCCCCCN(C(=O)[C@@H](NC(=O)[C@H]1CCCCN1)[C@@H](C)CC)[C@H](C[C@@H](OC(C)=O)c1nc(C(=O)N[C@@H](Cc2ccc(N)c(F)c2)CC(C)(C)C(=O)O)cs1)C(C)C [Compound P12, (4S)-4-({2-[(1R,3R)-1-(acetyloxy)-3-[(2S,3S)—N-hexyl-3-methyl-2-[(2R)-piperidin-2-ylformamido]pentanamido]-4-methylpentyl]-1,3-thiazol-4-yl}formamido)-5-(4-amino-3-fluorophenyl)-2,2-dimethylpentanoic Acid] | 9.47 | 10.52 |  | 

Source: US20230069722A1, “TUBULYSINS AND PROTEIN-TUBULYSIN CONJUGATES” (priority 2020, published 2023)
